Measured values reported in patent US9243247B2, “Composition for promoting apoptosis or inhibiting cell growth, comprising epstein-barr virus microrna” (Catholic University Industry Academic Cooperation Foundation, priority 2011, dated 2016).

Assays:
[1] = test system: AGS cell strain; experiment: Effect on cell cycle (propidium iodide staining, FACS, sub G1); assay type: cell-based; details: for Relative Sub G1: mimic 10 nM, 10 uM 5-FU 24 h after transfection, then 48 hours, relative to scrambled control (=1)
In short: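 AGS gastric cells (EBV-negative), 2×10^5 per well, were transfected with synthetic miRNA (10 nM). DNA was stained with propidium iodide, and the cell-cycle-altered fraction was measured by FACS.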

[2] = test system: AGS cell strain; experiment: Measurement of apoptosis (Annexin V staining, FACS); assay type: cell-based; details: for Relative Apoptotic cell: mimic 10 nM, 10 uM 5-FU 24 h after transfection, then 48 hours, Annexin V, relative to scrambled control (=1), n=9
In short: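 EBV-negative AGS cells (2×10^5/well) were transfected with 10 nM synthetic miRNA. Twenty-four hours later they received 10 uM 5-FU for 48 h at 37 °C. The apoptotic cell ratio was measured by PE Annexin V staining and FACS.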

[3] = AGS, mimic 10 nM in combination with 10 uM 5-FU

## BART15-3p: EBV BART miRNA mimic, double stranded RNA; sense SEQ NO: 15, antisense SEQ NO: 16 (sense GUCAGUGGUUUUGUUUCCUUGA; antisense UCAAGGAAACAAAACCACUGAC; chemistry not given here)
[1]; mimic 10 nM plus 10 uM 5-FU (Example 6)
  ratio of sub G1 after the 5-FU treatment: greatly increased
[1]; mimic 10 nM transfected alone, versus scrambled control
  percentage of sub G1: significantly higher
[1]
  Relative Sub G1: 2.508
[1]; listed as 15-3p
  Relative Sub G1: increased
[2]; [3]
  ratio of early apoptotic cell: increased
  ratio of late apoptotic cell: increased
[2]; AGS, mimic 10 nM plus 10 uM 5-FU
  degree of apoptosis, combination with 5-FU versus sum of single treatments: synergetic effect
[2]; AGS, mimic 10 nM treated alone
  ratio of early apoptotic cell: increased
  ratio of late apoptotic cell: increased
[2]; AGS
  Relative Apoptotic cell: 1.665
[2]; AGS, listed as 15-3p
  Relative Apoptotic cell: significantly higher
[2]; mimics transfected to AGS, tumor cell strain not infected with EBV
  effect on cell growth and apoptosis (summary statement): inhibit cell growth and promote apoptosis
